Entries after “also recorded” stand apart in the source; their conditions may differ. Where two headings read alike, the source gives them in different places.
Key:
[1] = test system: stomach, glandular portion; test: Gastric ulcerogenic activity, adjuvant-administered rats; format: in vivo; details: oral, 200 mg/kg per day, 21 days, control 0.05 ± 0.048, *P < 0.05
Method: On the other hand, after administering an adjuvant, the rats were orally administered […] of the test compounds per day for 21 days. On the 21st day the stomachs were removed, and the lengths of the lesions in the glandular portion were measured.

[2] = Acute toxicity (LD 50); format: in vivo; details: mouse, in vivo, male ddy mice
Method: (§1) The acute toxicity of AIA was tested using male mice (ddy, body weight 18-25 g), and the dose at which 50% of the animal population were killed (LD 50) was determined.

[3] = test system: stomach, glandular portion; test: Gastric ulcerogenic activity, pylorus-ligated rats; format: in vivo; details: for Length of Stomach Lesion (cm): pylorus-ligated rats, oral, 100 mg/kg, 7 hours
Method: Immediately after ligation of the pylorus of fasted rats, the test compounds were administered orally. The stomachs were removed 7 hours later, and the lengths of the lesions in the glandular portion were measured.

[4] = background statement on aspirin; cited from earlier work
[5] = test system: mice (acetic acid writhings); test: Inhibition of acetic acid-induced writhing in mice (analgetic activity); format: in vivo; details: for No. of Writhings: 30 minutes before acetic acid i.p., control 32.2 ± 3.7; for Inhibition (%): writhing, based on the control group
Method: The number of writhings that occurred when mice were administered an acetic acid solution intraperitoneally were counted, and the rate of inhibition based on the control group was calculated. The test compounds were administered to the mice 30 minutes before the acetic acid solution was administered.

[6] = test system: carrageenin edema; test: Carrageenin edema of hind paw (anti-inflammatory activity); format: in vivo; details: rats, s.c., 50 and 100 mg/kg, FIG. 2, in words
Method: Rats were subcutaneously administered the test compounds, and 30 minutes later a carrageenin solution was administered subcutaneously to the foot pad of the rats. The volume of the hind paw was measured at prescribed intervals after the administration of the carrageenin, and the rate of increase in the volume of the paw was calculated and designated as the rate of swelling (%).

[7] = test system: mouse tail (pain threshold, heat); test: Prolongation time of pain threshold of mouse tail, D'Amour-Smith Method (analgetic activity); format: in vivo; details: mice, s.c., 200 mg/kg AIA vs 200 mg/kg aspirin, FIG. 1
Method: Further, the prolongation time of pain threshold of mouse tail was determined in accordance with the D'Amour-Smith Method (J. Pharmacol. Exp. Ther., 72, 74 (1941)). After the subcutaneous administration of the test compounds to mice, the tails of mice were exposed to heat and the prolongation time of pain threshold was determined.

[8] = Hygroscopicity and stability; format: physicochemical; details: in words, no test described; listed as formula (I)
[9] = test system: male mice; test: Acute toxicity (LD 50); format: in vivo; details: male ddy mice, in words
Method: as §1

[10] = test system: excised intestinal tract of rats; test: Inhibition of induced contraction of excised intestinal tract; details: 100 μg/ml
[11] = test system: adjuvant arthritis; test: Adjuvant arthritis (anti-inflammatory activity); format: in vivo; details: rats, 200 mg/kg per day, 21 days, FIG. 3, in words
Method: On the other hand, an adjuvant was administered subcutaneously to only the foot pad of the left hind paw, and 200 mg/kg per day of the test compounds were administered daily for 21 days. The rate of increase in the volume of the both hind paws were measured daily and designated as the rate of swelling (%).

[12] = test system: rats (E. coli pyrogen); test: Antipyretic activity, E. coli suspension as pyrogen; format: in vivo; details: s.c., 100 mg/kg, 2 hours after pyrogen
Method: Rats received a sterilized E. coli suspension (1 platinum loop/2 ml saline, 0.5 ml/100 g, i.v.) as a pyrogen, and 2 hours later the test compounds were injected subcutaneously. The temperature was taken at hourly intervals before and after injection of the test compounds.

[13] = Solubility; format: physicochemical
[14] = ip, intraperitoneal, read-out: LD 50 (g/kg), Intraperitoneal administration
[15] = sc, subcutaneous, read-out: LD 50 (g/kg), Subcutaneous administration
[16] = oral, read-out: LD 50 (g/kg), Oral administration

| Compound | Length of Stomach Lesion (cm) [1] | LD50 [2, 14] | LD50 [2, 15] | LD50 [2, 16] | Length of Stomach Lesion (cm) [3] | No. of Writhings ([5]; 50 mg/kg) | Inhibition (%) ([5]; 50 mg/kg) | No. of Writhings ([5]; 100 mg/kg) | Inhibition (%) ([5]; 100 mg/kg) | further results |
| --- | --- | --- | --- | --- | --- | --- | --- | --- | --- | --- |
| CC(=O)Oc1ccccc1C(=O)O [Aspirin, acetylsalicylic acid] | 3.29 ± 1.37 cm | 0.76 ± 0.09 g/kg | 1.02 ± 0.11 g/kg | 11.6 ± 0.07 g/kg | 4.13 ± 1.24 cm | 17.2 ± 4.0 | 46.6% | 15.3 ± 2.4 | 52.5% | Hygroscopicity [4]: hygroscopic |
| CC(=O)Oc1ccccc1C(=O)NCc1c(C(C)C)c(=O)n(-c2ccccc2)n1C [AIA, N-3'a-propylphenazonyl-2-acetoxybenzamide] | 0.04 ± 0.031 cm | 3.67 ± 0.07 g/kg | > 5 g/kg | > 5 g/kg | 0.11 ± 0.09 cm | 22.1 ± 3.3 | 31.4% | 18.3 ± 1.7 | 43.2% | Inhibition of carrageenin edema formation [6]: has the activity of inhibiting carrageenin edema formation; Analgetic activity (prolongation of pain threshold) compared with aspirin [7]: stronger analgetic activity than the group administered 200 mg/kg of aspirin; Hygroscopicity [8]: free of hygroscopicity; also recorded: not hygroscopic; Stability [8]: stable; also recorded: good stability; Acute toxicity compared with aspirin [9]: extremely low as compared with that of aspirin; Inhibition of contraction induced by acetylcholine ([10]; acetylcholine): inhibit the contraction; Inhibition of contraction induced by barium chloride ([10]; barium chloride): inhibit the contraction; Inhibition of contraction induced by histamine ([10]; histamine): inhibit the contraction; Injury to the stomach (Tables 2A and 2B) ([3]; rats, in words, Tables 2A and 2B): little or no injury is caused to the stomach; Inhibitory effect on adjuvant arthritis compared with aspirin [11]: inhibitory effect on adjuvant arthritis comparable to that of aspirin; Antipyretic activity [12]: demonstrated antipyretic activity; Analgetic activity (writhing) compared with aspirin ([5]; in words): analgetic activity comparable to that of aspirin; Solubility in acetone ([13]; acetone): dissolves readily; Solubility in chloroform ([13]; chloroform): dissolves fairly well; Solubility in ethanol ([13]; ethanol): dissolves readily; Solubility in methanol ([13]; methanol): dissolves readily; Solubility in water ([13]; water): practically insoluble |
